# Key:
# [1] = test system: sugarbeets; assay: Sugarbeet field trial, Wilkin County, Minnesota (ACH 228 seed); type: in vivo
# Method: To test the efficacy of using a sugar based fertilizer composition with sugarbeets, a field trial using Crystal® brand ACH 228 sugarbeet seed was conducted in Wilkin County, Minnesota. A total of eleven (11) treatments were conducted. Each treatment was replicated four times arranged in a Randomized Complete Block (RCB) Design in the same field. Each replication consisted of a plot having a width of six (6) rows with twenty two (22) inch row spacing having a row length of twenty five (25) feet. To reduce/eliminate any treatment impacts between adjacent plots, only the four (4) interior rows of each plot were treated and evaluated. With the exception of the treatment program applied to the individual plots, which will be discussed below, conventional commercial growing practices were otherwise followed during the field trials. The individual plots experienced the same growing conditions throughout the season.
# The treatment regimen for the sugarbeets included one (1) untreated treatment in which no sugar was applied was used as the control element. One (1) treatment included Sun Energy Foliar Fertilizer (SE) available from Micro Nutrients Online. […] treatments were conducted using GS. SE is available in liquid form and was applied by spraying while GS was supplied in a conventional solid form and applied via broadcast spreading. SE is for foliar application and was applied according to the labeling instructions on post-emergent (Post) sugarbeet plants at the both the 4-Leaf and 8-Leaf stages. GS was applied at a variety of times, both pre-planting (Pre) and on post-emergent sugarbeet plants (Post) at either or both of the 4-Leaf and 8-Leaf stages. When applied during pre-planting (Pre), the GS was spread directly on the soil before spring tillage, lightly worked into the ground and followed by planting of the sugarbeet seed into the treated ground. A summary of the plot treatments are contained in Table 1 below:
# Following a conventional growing season, the middle four rows of each plot were harvested and data collected for overall yield (tons of sugarbeets/Acre), sugar per ton (pounds of recoverable sugar/ton of sugarbeets) and sugar per Acre (pounds of recoverable sugar/Acre). Fisher's Exact LSD was the statistical test of choice for mean separation for the individual plots of each treatment. A summary of the sugarbeet harvest data is contained in Table 2 below: […]
# [2] = test system: sugarbeets; assay: In-furrow sugar and/or fertilizer application on sugarbeets, Foxhome; type: in vivo, sugarbeet; conditions: for Recoverable Sugar / Sugarbeets / Yield Increase Compared to Check: in-furrow
# Method: In addition to testing pre-planting application of sugar, additional in-furrow application of sugar during sugarbeet planting was conducted. This testing was conducted at the Foxhome location and included ten (10) separate treatments. These treatments included one (1) untreated check treatment in which no sugar was applied and constitutes the control element. The treatments included one (1) treatment in which only a conventional fertilizer (liquid ammonium phosphate commonly and hereafter referred to as “10-34-0”) was applied in-furrow. […] Four (4) treatments included the in-furrow application of concentrated raw sugar juice (hereafter “CONCRJ”) at varying rates and/or 10-34-0. Liquid sugar is essentially comprised of sucrose. […] Liquid sugar, concentrated raw juice and 10-34-0 were all mixed and diluted with water in a tank and a conventional sprayer was configured such that the liquid was sprayed so as to have the desired sugar and fertilizer equivalent. For the sugar applied at rates of three gallons per acre, the sugar mixture was equivalent to 25 pounds per acre of sugar. […] In each replication, the liquid was applied into the furrow during planting of the sugarbeet seeds. A summary of the in-furrow sugar beet testing is contained in Table 16 below: […]
# [3] = Replication 3: 50 pounds/Acre Pre
# [4] = Replication 4: 100 pounds/Acre Pre
# [5] = Replication 5: 3 pounds/Acre 4-Leaf Post
# [6] = Replication 6: 3 pounds/Acre 8-Leaf Post
# [7] = Replication 7: 5 pounds/Acre 4-Leaf Post
# [8] = Replication 8: 3 pounds/Acre 4-Leaf + 3 pounds/Acre 8-Leaf Post
# [9] = Replication 9: 5 pounds/Acre 4-Leaf + 5 pounds/Acre 8-Leaf Post
# [10] = Replication 10: 50 pounds/Acre Pre + 3 pounds/Acre 8-Leaf
# [11] = Replication 11: 100 pounds/Acre Pre + 5 pounds/Acre 8-Leaf
# [12] = sugar 3 gal/acre + 10-34-0 3 gal/acre
# [13] = sugar 3 gal/acre, 10-34-0 0 gal/acre
# [14] = sugar 5 gal/acre + 10-34-0 3 gal/acre
# [15] = sugar 5 gal/acre, 10-34-0 0 gal/acre
smiles,measurement,setting,value
"OC[C@H]1O[C@@](CO)(O[C@H]2O[C@H](CO)[C@@H](O)[C@H](O)[C@H]2O)[C@@H](O)[C@@H]1O [GS, sucrose]",Pounds of Recoverable Sugar/Acre,[1]; [3],7598.95 pounds/Acre
same,Pounds of Recoverable Sugar/Ton of Sugarbeets,[1]; [3],282.03 pounds/ton
same,Tons of Sugarbeets/Acre,[1]; [3],26.94 tons/Acre
same,Yield Increase (recoverable sugar/Acre vs check),[1]; [3],9.32%
same,Pounds of Recoverable Sugar/Acre,[1]; [4],8051.44 pounds/Acre
same,Pounds of Recoverable Sugar/Ton of Sugarbeets,[1]; [4],278.54 pounds/ton
same,Tons of Sugarbeets/Acre,[1]; [4],28.91 tons/Acre
same,Yield Increase (recoverable sugar/Acre vs check),[1]; [4],15.83%
same,Pounds of Recoverable Sugar/Acre,[1]; [5],7021.89 pounds/Acre
same,Pounds of Recoverable Sugar/Ton of Sugarbeets,[1]; [5],276.83 pounds/ton
same,Tons of Sugarbeets/Acre,[1]; [5],25.41 tons/Acre
same,Yield Increase (recoverable sugar/Acre vs check),[1]; [5],1.02%
same,Pounds of Recoverable Sugar/Acre,[1]; [6],7279.72 pounds/Acre
same,Pounds of Recoverable Sugar/Ton of Sugarbeets,[1]; [6],284.34 pounds/ton
same,Tons of Sugarbeets/Acre,[1]; [6],25.64 tons/Acre
same,Yield Increase (recoverable sugar/Acre vs check),[1]; [6],4.73%
same,Pounds of Recoverable Sugar/Acre,[1]; [7],6712.87 pounds/Acre
same,Pounds of Recoverable Sugar/Ton of Sugarbeets,[1]; [7],274.69 pounds/ton
same,Tons of Sugarbeets/Acre,[1]; [7],24.43 tons/Acre
same,Yield Increase (recoverable sugar/Acre vs check),[1]; [7],−3.43%
same,Pounds of Recoverable Sugar/Acre,[1]; [8],6125.93 pounds/Acre
same,Pounds of Recoverable Sugar/Ton of Sugarbeets,[1]; [8],270.05 pounds/ton
same,Tons of Sugarbeets/Acre,[1]; [8],22.81 tons/Acre
same,Yield Increase (recoverable sugar/Acre vs check),[1]; [8],−11.87%
same,Pounds of Recoverable Sugar/Acre,[1]; [9],6957.73 pounds/Acre
same,Pounds of Recoverable Sugar/Ton of Sugarbeets,[1]; [9],289.83 pounds/ton
same,Tons of Sugarbeets/Acre,[1]; [9],24.00 tons/Acre
same,Yield Increase (recoverable sugar/Acre vs check),[1]; [9],0.10%
same,Pounds of Recoverable Sugar/Acre,[1]; [10],7250.53 pounds/Acre
same,Pounds of Recoverable Sugar/Ton of Sugarbeets,[1]; [10],276.34 pounds/ton
same,Tons of Sugarbeets/Acre,[1]; [10],26.24 tons/Acre
same,Yield Increase (recoverable sugar/Acre vs check),[1]; [10],4.31%
same,Pounds of Recoverable Sugar/Acre,[1]; [11],7963.70 pounds/Acre
same,Pounds of Recoverable Sugar/Ton of Sugarbeets,[1]; [11],274.29 pounds/ton
same,Tons of Sugarbeets/Acre,[1]; [11],29.03 tons/Acre
same,Yield Increase (recoverable sugar/Acre vs check),[1]; [11],14.57%
same,yield increase in comparison to the untreated check,[1]; every pre-planting application of GS,≥ 4%
same,yield increase as compared to the untreated check,[1]; largest pre-planting applications of GS,≥ 14%
same,yield data,[1]; only post-emergent application of GS at 4-Leaf or 8-Leaf stage,inconclusive
"OC[C@H]1O[C@@](CO)(O[C@H]2O[C@H](CO)[C@@H](O)[C@H](O)[C@H]2O)[C@@H](O)[C@@H]1O [LIQSUC, sucrose]",recoverable sugar compared to the check treatment and to 10-34-0 only,[2]; every in-furrow application of liquid sucrose,increase in recoverable sugar
same,recoverable sugar compared to the same amount of liquid sugar with no 10-34-0,[2]; in-furrow liquid sucrose plus 10-34-0,increase in recoverable sugar
same,Recoverable Sugar,[2]; [12],6437.113 Pounds/Acred
same,Sugarbeets,[2]; [12],26.3981 Tons/Acre
same,Yield Increase Compared to Check,[2]; [12],12.79%
same,Recoverable Sugar,[2]; [13],5777.0474 Pounds/Acred
same,Sugarbeets,[2]; [13],23.42 Tons/Acre
same,Yield Increase Compared to Check,[2]; [13],1.23%
same,Recoverable Sugar,[2]; [14],6262.2908 Pounds/Acred
same,Sugarbeets,[2]; [14],25.66 Tons/Acre
same,Yield Increase Compared to Check,[2]; [14],9.73%
same,Recoverable Sugar,[2]; [15],5881.91 Pounds/Acred
same,Sugarbeets,[2]; [15],24.38 Tons/Acre
same,Yield Increase Compared to Check,[2]; [15],3.06%
